Experimental data reported in ChEMBL document CHEMBL4765450, “The components and activities analysis of a novel anticoagulant candidate dHG-5” (Eur J Med Chem, 2020).
Activity calls are given as the source filed them. No cut-off for these calls is given here.

Experiments:
[1] = system: Rattus norvegicus; assay: Antithrombotic activity in thromboplastin and stasis-induced Sprague-Dawley rat deep venous thrombosis model assessed as reduction in venous thrombosis administered subcutaneously 1 hr prior to thromboplastin addition for 20 secs followed by establishment of stasis for 20 mins; type: functional; settings: time 80.33 min
[2] = target: Coagulation factor XI (Homo sapiens) (UniProt P03951); assay: Inhibition of factor 11a (unknown origin) at IC90 using S-2366 as substrate preincubated for 1 min followed by chromogenic substrate addition and measured for 2 mins in presence of AT-III; settings: time 3.0 min
[3] = system: Rattus norvegicus; assay: Antithrombotic activity in thromboplastin and stasis-induced Sprague-Dawley rat deep venous thrombosis model assessed as reduction in venous thrombosis at 2.7 mg/kg, sc administered 1 hr prior to thromboplastin addition for 20 secs followed by establishment of stasis for 20 mins; type: functional; design: scale not given: the % may be the effect or the level left; settings: time 80.33 min, 1.339 h
[4] = system: Plasma; assay: Induction of platelet aggregation in human platelet rich plasma at plasma peak concentration of 10 times anti-thrombosis ED50 measured after 10 mins by light transmission aggregometry
[5] = target: T1, Coagulation factor VII (Homo sapiens) (UniProt P08709); assay: Inhibition of factor 7a (unknown origin) at IC50 using pefachrome factor VIIa as substrate preincubated for 1 min followed by chromogenic substrate addition and measured for 2 mins; settings: time 3.0 min
T1 sequence (whole entry): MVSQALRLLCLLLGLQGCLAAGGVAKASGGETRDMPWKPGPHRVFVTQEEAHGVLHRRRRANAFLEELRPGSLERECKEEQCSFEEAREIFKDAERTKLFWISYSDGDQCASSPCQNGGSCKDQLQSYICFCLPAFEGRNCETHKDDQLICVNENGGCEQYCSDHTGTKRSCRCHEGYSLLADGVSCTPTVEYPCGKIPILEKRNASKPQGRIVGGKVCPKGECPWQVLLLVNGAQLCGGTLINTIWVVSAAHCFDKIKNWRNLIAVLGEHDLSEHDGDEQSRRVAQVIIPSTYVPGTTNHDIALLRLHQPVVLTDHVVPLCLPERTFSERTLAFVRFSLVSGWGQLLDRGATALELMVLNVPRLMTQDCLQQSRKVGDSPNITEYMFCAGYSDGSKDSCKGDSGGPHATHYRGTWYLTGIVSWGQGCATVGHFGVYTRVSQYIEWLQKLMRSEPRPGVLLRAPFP

[6] = Half life in Kunming mouse at 1.7 mg/kg, sc; type: ADME, organism-based; settings: in vivo
[7] = MRT (0 to infinity) in Kunming mouse at 15.3 mg/kg, sc; type: ADME, organism-based; settings: in vivo
[8] = MRT (0 to infinity) in Kunming mouse at 5.11 mg/kg, sc; type: ADME, organism-based; settings: in vivo
[9] = Half life in Kunming mouse at 5.11 mg/kg, sc; type: ADME, organism-based; settings: in vivo
[10] = Tmax in Kunming mouse at 1.7 mg/kg, sc; type: ADME, organism-based; settings: in vivo
[11] = target: T2, Coagulation factor XII (Homo sapiens) (UniProt P00748); assay: Inhibition of factor 12a (unknown origin) at IC50 using kallikrein chromogenic substrate preincubated for 1 min followed by chromogenic substrate addition and measured for 2 mins in presence of AT-III; settings: time 3.0 min
T2 sequence (whole entry): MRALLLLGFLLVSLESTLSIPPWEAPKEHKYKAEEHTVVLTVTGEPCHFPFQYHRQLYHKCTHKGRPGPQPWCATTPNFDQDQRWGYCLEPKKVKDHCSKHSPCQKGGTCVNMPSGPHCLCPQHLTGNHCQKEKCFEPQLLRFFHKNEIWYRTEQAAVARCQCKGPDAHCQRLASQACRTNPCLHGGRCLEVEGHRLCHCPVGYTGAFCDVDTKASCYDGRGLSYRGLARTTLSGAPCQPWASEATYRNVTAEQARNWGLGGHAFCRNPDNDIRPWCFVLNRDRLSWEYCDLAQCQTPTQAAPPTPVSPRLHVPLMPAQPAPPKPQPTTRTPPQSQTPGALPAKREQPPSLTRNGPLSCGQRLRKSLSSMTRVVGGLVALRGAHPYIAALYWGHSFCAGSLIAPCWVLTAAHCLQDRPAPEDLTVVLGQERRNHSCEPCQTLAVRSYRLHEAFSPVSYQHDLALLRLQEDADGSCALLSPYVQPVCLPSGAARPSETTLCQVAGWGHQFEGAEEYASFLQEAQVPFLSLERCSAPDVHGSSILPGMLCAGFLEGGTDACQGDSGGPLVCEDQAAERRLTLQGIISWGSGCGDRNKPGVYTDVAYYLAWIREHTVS

Coagulation factor XI (Homo sapiens), sequence (P03951 19-387 limits assumed): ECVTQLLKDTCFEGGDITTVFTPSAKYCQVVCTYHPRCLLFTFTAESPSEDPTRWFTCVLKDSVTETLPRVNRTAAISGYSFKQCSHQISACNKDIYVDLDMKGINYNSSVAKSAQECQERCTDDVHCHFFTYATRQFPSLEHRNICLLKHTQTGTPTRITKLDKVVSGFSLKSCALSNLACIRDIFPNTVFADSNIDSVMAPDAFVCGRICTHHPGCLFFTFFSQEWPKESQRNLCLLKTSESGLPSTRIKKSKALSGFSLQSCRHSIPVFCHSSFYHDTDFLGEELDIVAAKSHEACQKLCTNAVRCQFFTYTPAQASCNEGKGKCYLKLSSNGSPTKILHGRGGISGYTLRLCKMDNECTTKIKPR
Coagulation factor XI (Homo sapiens), sequence (P03951 388-625 limits assumed): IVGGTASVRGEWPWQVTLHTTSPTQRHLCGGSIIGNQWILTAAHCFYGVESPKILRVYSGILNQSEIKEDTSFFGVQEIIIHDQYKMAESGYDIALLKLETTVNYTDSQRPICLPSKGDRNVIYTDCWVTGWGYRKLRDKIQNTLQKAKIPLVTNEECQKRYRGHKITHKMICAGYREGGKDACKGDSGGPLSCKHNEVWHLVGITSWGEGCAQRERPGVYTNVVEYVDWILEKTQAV

inhibition [2]: Active | Activity [4]: Not Active | inhibition (active/not active) [5]: inactive | half-life [6]: 1.09 h | MRT inf [7]: 1.71 h | MRT inf [8]: 1.52 h | half-life [9]: 0.563 h | Tmax [10]: 1.17 h | inhibition [11]: inactive
Compound: CC(=O)N[C@H]1[C@H](O[C@H]2[C@H](O[C@@H]3O[C@@H](C)[C@@H](OS(=O)(=O)[O-])[C@@H](O)[C@@H]3OS(=O)(=O)O)[C@@H](O)[C@H](O[C@H]3[C@@H](NC(C)=O)[C@H](O[C@H]4[C@H](O[C@@H]5O[C@@H](C)[C@@H](OS(=O)(=O)[O-])[C@@H](O)[C@@H]5OS(=O)(=O)O)[C@@H](O)[C@H](O[C@H]5[C@@H](NC(C)=O)[C@H](O[C@H]6[C@H](O[C@@H]7O[C@@H](C)[C@@H](OS(=O)(=O)[O-])[C@@H](O)[C@@H]7OS(=O)(=O)O)[C@@H](O)[C@H](O[C@H]7[C@@H](NC(C)=O)[C@H](O[C@H]8[C@H](O[C@@H]9O[C@@H](C)[C@@H](OS(=O)(=O)[O-])[C@@H](O)[C@@H]9OS(=O)(=O)O)[C@@H](O)[C@H](O[C@H]9[C@@H](NC(C)=O)[C@H](O[C@@H]([C@H](O[C@@H]%10O[C@@H](C)[C@@H](OS(=O)(=O)[O-])[C@@H](O)[C@@H]%10OS(=O)(=O)O)[C@@H](O)CO)[C@H](O)C(=O)[O-])O[C@H](COS(=O)(=O)[O-])[C@@H]9OS(=O)(=O)[O-])O[C@@H]8C(=O)[O-])O[C@H](COS(=O)(=O)[O-])[C@@H]7OS(=O)(=O)[O-])O[C@@H]6C(=O)[O-])O[C@H](COS(=O)(=O)[O-])[C@@H]5OS(=O)(=O)[O-])O[C@@H]4C(=O)[O-])O[C@H](COS(=O)(=O)[O-])[C@@H]3OS(=O)(=O)[O-])O[C@@H]2C(=O)[O-])O[C@H](COS(=O)(=O)[O-])[C@H](OS(=O)(=O)[O-])[C@@H]1O[C@@H]1OC(C(=O)[O-])=C[C@H](O[C@@H]2O[C@@H](C)[C@@H](OS(=O)(=O)[O-])[C@@H](O)[C@@H]2OS(=O)(=O)O)[C@H]1O.[Na+].[Na+].[Na+].[Na+].[Na+].[Na+].[Na+].[Na+].[Na+].[Na+].[Na+].[Na+].[Na+].[Na+].[Na+].[Na+].[Na+].[Na+].[Na+].[Na+].[Na+].[Na+]
ED50 ([1]; sc, 1.339 h): 2.38 mg/kg | Activity [1]: Dose-dependent effect | Activity [3]: 60.7%
